The structures appear in SMILES notation.

One test addresses T1, HDAC10 (Homo sapiens, UniProt Q969S8).
T1 construct: made in house; host or cells: HEK293/T17
T1 sequence (Q969S8 1-669): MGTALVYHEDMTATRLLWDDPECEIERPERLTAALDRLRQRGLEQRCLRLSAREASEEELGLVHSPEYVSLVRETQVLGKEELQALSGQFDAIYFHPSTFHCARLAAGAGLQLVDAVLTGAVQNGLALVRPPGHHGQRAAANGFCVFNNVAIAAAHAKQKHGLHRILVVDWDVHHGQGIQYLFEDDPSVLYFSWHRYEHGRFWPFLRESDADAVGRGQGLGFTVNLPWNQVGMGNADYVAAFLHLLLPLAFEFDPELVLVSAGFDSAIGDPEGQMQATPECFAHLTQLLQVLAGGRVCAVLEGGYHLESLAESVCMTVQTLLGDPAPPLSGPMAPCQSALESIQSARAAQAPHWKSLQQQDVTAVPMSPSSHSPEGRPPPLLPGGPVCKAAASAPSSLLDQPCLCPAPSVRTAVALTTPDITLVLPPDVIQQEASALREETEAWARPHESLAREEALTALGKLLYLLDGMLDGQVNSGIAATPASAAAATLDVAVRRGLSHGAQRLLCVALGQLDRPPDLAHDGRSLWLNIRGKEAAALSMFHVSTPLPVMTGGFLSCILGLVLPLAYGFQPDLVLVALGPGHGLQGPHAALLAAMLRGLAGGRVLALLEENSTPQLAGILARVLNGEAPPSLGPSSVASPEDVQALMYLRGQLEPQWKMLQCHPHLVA
Kind of test: HDAC10 inhibition assay (HPLC readout). In kind it is biochemical. As to conditions: purified human protein, fluorescein-labeled N8-acetylspermidine substrate, 15 min preincubation. As to the method:
Large-scale expression of recombinant human HDACs was carried out as described previously.[32],[37] Briefly, HEK293/T17 cells were transiently transfected with expression pMM222 plasmids comprising N-terminally tagged (TwinStrep-FLAG-HALO tag; Figure S1) HDAC genes using linear poly(ethyleneimine) (PEI, Polysciences Inc.). Cells were harvested three days post-transfection, and cell pellets were resuspended in the lysis buffer (100 mM Tris-HCl, 10 mM NaCl, 5 mM KCl, 2 mM MgCl2, and 10% glycerol at pH 8.0). Cells were disrupted by sonication, cell lysates were cleared by centrifugation, and soluble fusion proteins were first purified by Streptactin affinity chromatography (IBA). For all HDACs but HDACs 1, 10, and 11, the N-terminal tag was cleaved off overnight by the addition of TEV protease (10:1 HDAC/TEV ratio). […]
Optimized fluorometric assays were used to determine inhibition constants of studied compounds against individual HDAC isoforms as described previously.[32] […] Deacetylation reactions were monitored either by high-performance liquid chromatography (HPLC) (HDAC10) or by quantification of released AMC (λex/λem = 365/440 nm) using a CLARIOstar plate reader (BMG Labtech GmbH).

In the next test the target is T2, HDAC6 (Homo sapiens, UniProt Q9UBN7).
T2 construct: TwinStrep-FLAG-HALO (N, cleaved yes); made in house; host or cells: HEK293/T17
T2 sequence (Q9UBN7 1-1215): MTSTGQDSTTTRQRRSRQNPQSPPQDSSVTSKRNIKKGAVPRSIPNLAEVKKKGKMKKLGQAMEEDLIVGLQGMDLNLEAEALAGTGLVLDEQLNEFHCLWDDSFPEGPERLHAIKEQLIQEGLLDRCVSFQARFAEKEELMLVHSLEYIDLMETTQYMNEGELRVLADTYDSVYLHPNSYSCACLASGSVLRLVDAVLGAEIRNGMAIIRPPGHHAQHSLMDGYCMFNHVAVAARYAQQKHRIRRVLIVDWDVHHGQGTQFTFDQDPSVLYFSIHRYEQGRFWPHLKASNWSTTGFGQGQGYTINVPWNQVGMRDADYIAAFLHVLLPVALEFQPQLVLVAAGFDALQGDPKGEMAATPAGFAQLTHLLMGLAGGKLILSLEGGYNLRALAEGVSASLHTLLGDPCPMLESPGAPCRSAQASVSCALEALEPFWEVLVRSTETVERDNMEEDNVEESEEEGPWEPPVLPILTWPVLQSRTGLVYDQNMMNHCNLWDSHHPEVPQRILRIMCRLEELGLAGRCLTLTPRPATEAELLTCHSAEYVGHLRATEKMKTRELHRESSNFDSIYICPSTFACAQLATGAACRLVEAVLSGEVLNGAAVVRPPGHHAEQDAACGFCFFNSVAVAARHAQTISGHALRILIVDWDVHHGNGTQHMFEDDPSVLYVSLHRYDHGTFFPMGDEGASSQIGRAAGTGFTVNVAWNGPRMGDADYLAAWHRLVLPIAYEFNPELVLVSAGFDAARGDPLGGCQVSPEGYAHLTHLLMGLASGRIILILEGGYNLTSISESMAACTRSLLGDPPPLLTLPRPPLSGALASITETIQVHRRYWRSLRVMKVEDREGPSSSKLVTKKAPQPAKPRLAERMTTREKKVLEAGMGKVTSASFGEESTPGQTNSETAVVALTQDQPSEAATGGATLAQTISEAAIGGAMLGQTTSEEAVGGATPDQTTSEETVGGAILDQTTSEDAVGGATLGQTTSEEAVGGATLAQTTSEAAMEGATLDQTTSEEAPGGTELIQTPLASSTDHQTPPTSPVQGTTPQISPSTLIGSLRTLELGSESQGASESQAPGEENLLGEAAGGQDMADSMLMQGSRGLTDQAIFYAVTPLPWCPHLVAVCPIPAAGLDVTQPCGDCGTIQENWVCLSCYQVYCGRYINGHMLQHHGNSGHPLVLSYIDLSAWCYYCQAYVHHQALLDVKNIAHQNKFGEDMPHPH
Nature of the test: Fluorometric HDAC inhibition assay, HDAC6. The following applies: for fold more potent compared to the hydrazide product 4: HDAC6 potency ratio; for IC50: purified human protein, Ac-Gly-Ala-[Lys-Ac]-AMC substrate 10 μM, 15 min preincubation. The format is biochemical. As to the method: Large-scale expression of recombinant human HDACs was carried out as described previously.[32],[37] Briefly, HEK293/T17 cells were transiently transfected with expression pMM222 plasmids comprising N-terminally tagged (TwinStrep-FLAG-HALO tag; Figure S1) HDAC genes using linear poly(ethyleneimine) (PEI, Polysciences Inc.). Cells were harvested three days post-transfection, and cell pellets were resuspended in the lysis buffer (100 mM Tris-HCl, 10 mM NaCl, 5 mM KCl, 2 mM MgCl2, and 10% glycerol at pH 8.0). Cells were disrupted by sonication, cell lysates were cleared by centrifugation, and soluble fusion proteins were first purified by Streptactin affinity chromatography (IBA). For all HDACs but HDACs 1, 10, and 11, the N-terminal tag was cleaved off overnight by the addition of TEV protease (10:1 HDAC/TEV ratio). Size-exclusion chromatography on a Superose 6 column (GE Healthcare Bio-Sciences; running buffer 30 mM HEPES, 140 mM NaCl, 10 mM KCl, 3% glycerol, and 0.25 mM TCEP) was used as the final purification step for all HDAC constructs.
Optimized fluorometric assays were used to determine inhibition constants of studied compounds against individual HDAC isoforms as described previously.[32] Briefly, reactions were performed in the activity buffer comprising 50 mM HEPES, 140 mM NaCl, and 10 mM KCl at pH 7.4 supplemented with 1 mg mL^–1 bovine serum albumin (BSA), 1 mM tris(2-carboxyethyl)phosphine (TCEP), 10 μM substrates, and optimized concentrations of HDACs. The Ac-Gly-Ala-[Lys-Ac]-7-amino-methylcoumarylamide (AMC) substrate was used to profile HDACs 1, 2, 3, and 6; Boc-[Lys-TFA]-7-amino-methylcoumarylamide was used for HDACs 4, 5, 7, 8, and 9 (both substrates: Bachem); fluorescein-labeled N8-acetylspermidine was used for HDAC10;[32] and an internally quenched TNFα-derived peptide derivative was used for HDAC11.[39] Deacetylation reactions were monitored either by high-performance liquid chromatography (HPLC) (HDAC10) or by quantification of released AMC (λex/λem = 365/440 nm) using a CLARIOstar plate reader (BMG Labtech GmbH).

In the case of `CS(=O)(=O)N(Cc1ccc(-c2nnc(C(F)(F)F)o2)cn1)c1cccc(Cl)c1` [compound 7], on HDAC10, the IC50 was over 20 µM. On HDAC6, the “fold more potent compared to the hydrazide product 4” value was about 150 fold and the midpoint of inhibition, the IC50, lay at 0.0146 ± 0.008 µM.
`CS(=O)(=O)N(Cc1ccc(C(=O)NNC(=O)C(F)(F)F)cn1)c1cccc(Cl)c1` [compound 5] showed a half-inhibitory concentration (IC50) against HDAC6 of 10.8 µM. In other words, the double-digit micromolar range.
In turn, `CS(=O)(=O)N(Cc1ccc(-c2nnc(C(F)F)o2)cn1)c1cccc(Cl)c1` [compound 8] displayed an IC50 against HDAC10 of over 20 µM. The “fold more potent compared to the hydrazide product 4” value on HDAC6 is “approximately 1000 fold”.
At HDAC6, `CS(=O)(=O)N(Cc1ccc(C(=O)NN)cn1)c1cccc(Cl)c1` [compound 4] gave an IC50 of 2.16 ± 0.392 µM.
The same measure, in the same setting: as for `CS(=O)(=O)N(Cc1ccc(C(=O)NNC(=O)C(F)F)cn1)c1cccc(Cl)c1` [compound 6], the figure is 14.5 µM.

Values taken from paper PMC10367051, “Comprehensive Mechanistic View of the Hydrolysis of Oxadiazole-Based Inhibitors by Histone Deacetylase 6 (HDAC6)” (ACS Chemical Biology, 2023).
